Assay results: US11331368B2, “Angiotensin receptor agonists and uses thereof” (Monash University, priority 2017, dated 2022)

Columns and labels:
[1] = tested on: mouse aortae; assay: Vasorelaxation of pre-contracted mouse aortae; details: 0.1-1000 nM, pre-contracted with U46619
Description: FIG. 17: The selective AT2R ligands, β-Pro^7-Ang III and D-Arg^2-β-Pro^7-Ang III, are functional agonists in vasculature.

[2] = tested on: stroke-prone spontaneously hypertensive rats (SHRSP); assay: Stroke-prone spontaneously hypertensive rats (SHRSP), 4-week infusion; format: in vivo, rat; details: 75 pmol/kg/min s.c. for 4 weeks
Description: FIG. 27: AT2R stimulation by β-Pro^7-Ang III attenuates cardiac fibrosis in stroke-prone spontaneously hypertensive rats (SHRSP). Mean data for cardiac fibrosis determined by picrosirius red staining of transverse heart sections, under bright field microscopy, taken from ˜25-week old, male stroke-prone spontaneously hypertensive rats (SHRSP) that received either saline or β-Pro^7-Ang III (75 pmol/kg/min subcutaneously via osmotic mini-pump) for 4 weeks (n=3-4). Data expressed as mean±s.e.m of percentage positive stained area for fibrosis. **P<0.01 versus saline (unpaired t-test).
For the first time, β-Pro^7-Ang III was tested at the same dose, duration and route of administration (75 pmol/kg/min subcutaneously via osmotic mini-pump for 4 weeks) in adult male stroke-prone spontaneously hypertensive rats (SHRSP).

[3] = tested on: male FVB/N mice on high salt diet, liver; assay: High salt (5%) diet intervention model, liver; format: in vivo, mouse; details: weeks 5-8; peptides 75 pmol/kg/min s.c.; Cand 2 mg/kg/day, captopril 3 mg/kg/day
[4] = molecular target: T1, human AT1R (Homo sapiens, UniProt P30556); assay: Competition radioligand binding (125I-Sar1-Ile8-AngII) in AT1R-transfected HEK-293 cells
T1 construct: expressed in transfected cells
T1 sequence (P30556 1-359): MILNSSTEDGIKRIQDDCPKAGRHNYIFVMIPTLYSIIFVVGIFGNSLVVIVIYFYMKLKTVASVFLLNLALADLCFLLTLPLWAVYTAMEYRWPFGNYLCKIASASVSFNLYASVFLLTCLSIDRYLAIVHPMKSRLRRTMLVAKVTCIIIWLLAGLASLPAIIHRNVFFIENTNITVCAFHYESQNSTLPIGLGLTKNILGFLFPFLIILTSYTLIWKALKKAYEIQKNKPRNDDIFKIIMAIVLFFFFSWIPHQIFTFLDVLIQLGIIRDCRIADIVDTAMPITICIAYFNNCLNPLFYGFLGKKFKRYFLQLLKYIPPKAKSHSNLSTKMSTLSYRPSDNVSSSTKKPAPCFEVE
Description: This will lead to the generation of IC50 values that determine the relative ability of test compounds to interact with both Angiotensin receptors.
Cells were grown to approximately 80% confluence before being re-plated into 48 well plates at 1×10^5 cells/well and grown for 48 hours at 37° C. for a whole cell competition binding assay. [125I]-Sar1Ile8Ang II at 50,000 cpm, incubated for 45 minutes at 37° C., in the absence or presence of unlabeled ligands, prepared in binding buffer (DMEM, 0.1% BSA), were used in the competition assays at concentrations ranging from 1 μM to 10 μM. For each experiment, each ligand concentration was tested in duplicate or triplicate, and each experiment was repeated at least 3 separate times. […] The ability of each ligand to inhibit specific binding of [125I]-Sar1Ile8Ang II was measured on a gamma counter with all counts corrected for NSB.

binding at AT1R (displacement of 125I-Sar1-Ile8-AngII), in words [4]: bind poorly
Substance: Arg-Val-Tyr-Ile-His-β-Pro-Phe [βPro-Ang III]
vasorelaxation of pre-contracted aortae [1]: concentration-dependent vasorelaxation | SBP in SHRSP [2]: did not affect SBP | cardiac fibrosis (picrosirius red) in SHRSP [2]: significantly reduced cardiac fibrosis | liver fibrosis (picrosirius red, polarized light) [3]: appears to attenuate | liver steatosis (Oil Red O) [3]: partially reversed
